Measured values taken from patent US12630532B2, “Indole-substituted quinolines and their combination with Plk1 inhibitors for the treatment of cancer” (UNIVERSITY OF KENTUCKY RESEARCH FOUNDATION, priority 2021, dated 2026).

Columns and labels:
[1] = tested on: mouse colon cancer organoids; experiment: Colon cancer organoids from Apc^f/+/Kras^LSL-G12D/Villin-Cre mouse model; format: cell-based
Description: The colon cancer organoids were isolated from Apc^f/+/Kras^LSL-G12D/Villin-Cre mouse model (38). Using 48-well drug screening to assess how compounds affected organoid colony formation, the Matrigel containing organoids was digested by 300 μL dispase. The gel was removed by 1,000×5 min spinning. The organoids were digested into single cells by 1 mL Trypsin and washed with 10 mL of ADF12. For each well, 80 μL of Matrigel was added to the bottom and 1000 cells in 60 μL Matrigel were added to the top. The cells were cultured in 250 μL of 3D complete medium (Advanced DMEM/F12 supplemented with 1×N-2, 1×B-27, 1 mM N-acetylcysteine and 1% penicillin/streptomycin). The cells were treated with DMSO or testing compounds and total number of organoids with diameter greater than 50 μm were analyzed and manually counted using microscope.
After 3 days when organoids formed, fresh culture media were supplied, and compounds were added for additional 3 days. Organoid viability was measured using CellTiter-Glo® 3D Cell Viability Assay (Promega) following manufacturer's protocol.

TOPFlash Wnt reporter = TOPFlash Wnt reporter assay in stable HEK293T cells; format: cell-based; conditions: 24 hours treatment
Description: Wnt reporter assay was described previously (25). We subcloned Super 8×TOPFlash (provided by Professor Randall Moon, University of Washington) into the pGL4.83 [hRlucP/Puro] Vector and transfected it into HEK293T cells. A stable HEK293T cell line containing the TOPFlash reporter was established using puromycin selection (25). To assess if compounds of interest blocked the downstream signaling transduction pathway of β-catenin, the stable reporter cells were seeded to a 12-well plate and treated with 25 mM LiCl to stabilize β-catenin for 16 hours to activate Wnt signaling and then candidate compounds at predetermined concentrations for another 24 hours. The cells were lysed and centrifuged to obtain supernatants which were analyzed by FB 12 Single Tube Luminometer by Titertek-Berthold (Berthold Detection Systems GmbH, Elsässerstr, Germany).

Plk1 = experiment: Western blotting of cell signaling pathways in LS174T cells; format: cell-based; conditions: LS174T colon cancer cells, 24 hours
Description: (§1) Western blotting were performed according to previous procedures (25). Cells were split into 12-well plates. After 24 hours, compounds at indicated final concentrations were added to each well for another 24 hours unless otherwise noted. DMSO was used as a control. Cells were lysed in the appropriate volume of lysis buffer: 50 mM HEPES, 100 mM NaCl, 2 mM EDTA, 1% (v/v) glycerol, 50 mM NaF, 1 mM Na3VO4, 1% (v/v) Triton X-100, with protease inhibitors. Cell lysates were centrifuged, and supernatants were mixed with 6× protein loading buffer and boiled. The obtained samples were analyzed with standard western blotting methods with indicated antibodies.

[2] = tested on: Wnt signaling target genes c-Myc and axin2; experiment: Western blotting of Wnt signaling target genes in LS174T cells; format: cell-based; conditions: 24 hours
Description: as §1

[3] = tested on: mitochondrial ETC (electron transport chain); experiment: Seahorse assay (OCR) in LS174T cells; format: cell-based
Description: (§2) Seahorse assays were carried out following a published procedure (25). Briefly, 2.5×10^4 cells in 80 μL of medium were seeded in XF96 Cell Culture microplate for all experiments. On the next day, cell culture media were replaced with Seahorse XF modified media. Cells were treated with 1 μM of oligomycin A, 1.0 μM FCCP and mixture of 1.0 μM of rotenone and 1.0 μM of antimycin A in standard mitochondrial stress test conditions. To determine the uncoupler effects, FCCP was replaced with an equal volume of DMSO, or a compound to be tested in DMSO solution.

[4] = tested on: mitochondrial ETC (electron transport chain); experiment: Seahorse assay (OCR) in Beas-2B cells; format: cell-based
Description: as §2

Solubility comparison = format: physicochemical; conditions: relative comparison
AMPK = AMPK signaling (western blotting) in Beas-2B cells; format: cell-based; conditions: compared with CRC cells
Description: as §1

[5] = tested on: mitochondrial ETC complex I; experiment: Mitochondrial ETC complex activity measurements using PMP-permeabilized cells; format: cell-based
Description: Mitochondrial ETC complex activity measurements were taken using the Agilent Seahorse Assay with XF PMP (Agilent, Santa Clara, CA) following manufacturer's instructions. Adherent monolayer cells were gently washed with mitochondrial assay solution (MAS) (220 mM mannitol, 70 mM sucrose, 10 mM KH2PO4, 5 mM MgCl2, 2 mM HEPES, 1 mM EGTA, and 0.2% (w/v) fatty acid free BSA) and cell growth media was replaced with MAS supplemented with 4 mM adenosine diphosphate (ADP), 10 mM pyruvate, and 1 nM PMP. Following calibration, the assay was immediately performed by measuring baseline with two cycles of 0.5 min mixing, 0.5 min waiting, and 2 min measuring. After baseline measurements, sequential injections of DMSO, compounds of interest or 2 μM rotenone, 10 mM succinate, 2 μM antimycin A, and a combination of 10 mM ascorbate and 100 μM TMPD were also performed with each followed by two cycles of 0.5 min mixing, 0.5 min waiting, and 2 min measuring. Data were then normalized to cell counts using the Biotek Cytation 1 (BioTek Instruments, Winooski, VT, USA).

LS174T cells = experiment: Cell proliferation inhibition assay (5 days, cell counting); format: cell-based
Description: (§3) Cell proliferation inhibition assays were done following a previous report (32). Cancer cells were seeded into 24-well plates at a density of 20,000 cells per well in 1 mL of culture medium and were cultured overnight at 37° C. Compounds and the vehicle control (DMSO) were added to the cells. After 5 days, the medium was removed, and 100 μL of trypsin was added. The cells were resuspended in phosphate-buffered saline (PBS) and were counted by Vi-CELL XR 2.03 (Beckman Coulter, Inc. USA). The ratio R of the number of viable cells in the compound treatment group to the number of viable cells in DMSO treatment group was taken as relative growth, and the percentage growth inhibition was calculated as (1−R)*100.

[6] = tested on: liver cancer cell line HepG2; experiment: Cell proliferation inhibition assay; format: cell-based; conditions: HepG2, 5 days (FIG. 1B)
Description: as §3

[7] = tested on: prostate cancer cell line PC-3; experiment: Cell proliferation inhibition assay; format: cell-based; conditions: PC-3, 5 days (FIG. 1B)
Description: as §3

[8] = tested on: sarcoma cell line SK-LMS-1; experiment: Cell proliferation inhibition assay; format: cell-based; conditions: SK-LMS-1, 5 days (FIG. 1B)
Description: as §3

**Q.** With `CN(C)c1ccc2cc(-c3cn(C)c4ccccc34)c(N)nc2c1` [ISQ-1, N^7,N^7-Dimethyl-3-(1-methyl-1H-indol-3-yl)quinoline-2,7-diamine] as the compound, how does the “organoid growth (CellTiter-Glo 3D viability)” value ([1]; 3-day treatment after organoids formed) read?
**A.** inhibited organoid growth in a dose-dependent manner

**Q.** And the “tumor organoid formation from single cells” value ([1]; day 7)?
**A.** inhibited tumor organoid formation from single cells

**Q.** What about the “TOPFlash Wnt reporter luciferase luminescence” value (TOPFlash Wnt reporter) of the same compound?
**A.** inhibited TOPFlash Wnt reporter

**Q.** And the “Plk1 expression upon drug treatment” value (Plk1)?
**A.** induced

**Q.** What about the “effect on Wnt signaling target genes c-Myc and axin2” value [2] of the same compound?
**A.** inhibited

**Q.** What about the “ETC complex V inhibition (oligomycin replaced with compound)” value [3] of the same compound?
**A.** did not inhibit ETC complex V

**Q.** And the “ETC complex V inhibition (oligomycin replaced with compound)” value [4]?
**A.** did not inhibit ETC complex V

**Q.** What about the “uncoupler effect (FCCP replaced with compound)” value [4] of the same compound?
**A.** no uncouplers

**Q.** What about the solubility (Solubility comparison) of the same compound?
**A.** better than that of ISQ-7

**Q.** And the AMPK signaling activation (AMPK)?
**A.** less effective in activating AMPK signaling

**Q.** And the “ETC complex I inhibition (pyruvate/NADH-linked respiration)” value ([5]; pyruvate substrate)?
**A.** inhibited complex I

**Q.** And the “inhibition of complexes II, III, or IV (respiration after succinate)” value ([5]; succinate added)?
**A.** ruled out the possibility that ISQ-1 inhibited complexes II, III, or IV

**Q.** And the “percentage inhibition of LS174T cell proliferation at 500 nM, compared among ISQs (FIG. 2B)” value (LS174T cells; 500 nM)?
**A.** more active

**Q.** What about the inhibition at 0.062 µM (LS174T cells; Homo sapiens, LS174T, 120 h, 62 nM, 5 days) of the same compound?
**A.** 16 ± 2%

**Q.** And the inhibition at 0.125 µM (LS174T cells; Homo sapiens, LS174T, 120 h, 125 nM, 5 days)?
**A.** 22 ± 5%

**Q.** And the inhibition at 0.25 µM (LS174T cells; Homo sapiens, LS174T, 120 h, 250 nM, 5 days)?
**A.** 38 ± 2.2%

**Q.** And the inhibition at 0.5 µM (LS174T cells; Homo sapiens, LS174T, 120 h, 500 nM, 5 days)?
**A.** 91 ± 4.3%

**Q.** What about the inhibition at 0.3 µM (LS174T cells; Homo sapiens, LS174T, read-out: Inhibition % on LS174T cells Proliferation 0.3 uM Inhib. %) of the same compound?
**A.** 83.9%

**Q.** What about the inhibition at 1 µM (LS174T cells; Homo sapiens, LS174T, read-out: Inhibition % on LS174T cells Proliferation 1 uM Inhib. %) of the same compound?
**A.** 92.7%

**Q.** What about the inhibition at 3 µM (LS174T cells; Homo sapiens, LS174T, read-out: Inhibition % on LS174T cells Proliferation 3 uM Inhib. %) of the same compound?
**A.** 99.3%

**Q.** What about the “inhibited in vitro cell growth” value (LS174T cells; LS174T, 5 days (FIG. 1B)) of the same compound?
**A.** nanomolar concentrations

**Q.** And the “inhibited in vitro cell growth” value [6]?
**A.** nanomolar concentrations

**Q.** What about the “inhibited in vitro cell growth” value [7] of the same compound?
**A.** nanomolar concentrations

**Q.** And the “inhibited in vitro cell growth” value [8]?
**A.** nanomolar concentrations
